Assay [1] deals with C-C chemokine receptor type 2 (Homo sapiens, UniProt P41597). Put plainly: Inhibition of MCP-1 induced chemotaxis in THP-1 cells.
The nature of assay [2]: Inhibition of MCP-1 induced chemotaxis in THP-1 cells.

In BindingDB's records for doi:10.1016/j.bmcl.2004.08.009 (Deltagen Research Laboratories, 2004) one finds EC50 data, which are given here for five compounds.

SMILES strings stand for the structures.

Sequence of C-C chemokine receptor type 2 (P41597 whole entry): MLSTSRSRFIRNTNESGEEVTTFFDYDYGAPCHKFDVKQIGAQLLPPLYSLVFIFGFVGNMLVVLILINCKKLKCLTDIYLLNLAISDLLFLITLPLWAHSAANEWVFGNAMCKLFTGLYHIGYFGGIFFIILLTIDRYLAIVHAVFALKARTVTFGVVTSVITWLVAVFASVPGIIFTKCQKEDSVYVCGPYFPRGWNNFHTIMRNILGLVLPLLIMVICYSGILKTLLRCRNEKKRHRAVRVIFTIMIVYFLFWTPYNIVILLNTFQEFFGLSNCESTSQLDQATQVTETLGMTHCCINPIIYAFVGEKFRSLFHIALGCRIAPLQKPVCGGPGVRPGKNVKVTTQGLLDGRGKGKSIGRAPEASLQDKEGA

Broadly, the EC50 is the concentration giving half of the maximal effect. Lower therefore signals higher potency in that assay. As for `O=C(CNC(=O)c1cccc(C(F)(F)F)c1)NC[C@H]1CCCN1Cc1ccc(Cl)cc1`, the response in assay [1] was half-maximal at 810 nM (EC50). This lies in the sub-micromolar range.
On to `O=C(CNC(=O)c1cccc(C(F)(F)F)c1)N[C@H]1CCN(Cc2ccc(Cl)cc2)C1`, for which a half-maximal effect in assay [2] (EC50) was put at 360 nM.
On the same count and under the same terms, for `O=C(CNC(=O)c1cccc(C(F)(F)F)c1)N[C@@H]1CCN(Cc2ccc(Cl)cc2)C1` [(R)-N-(2-(1-(4-chlorobenzyl)pyrrolidin-3-ylamino)-2-oxoethyl)-3-(trifluoromethyl)benzamide] the value was 20 nM.
In assay [2], `O=C(CNC(=O)c1cccc(C(F)(F)F)c1)NCC1CCN(Cc2ccc(Cl)cc2)CC1` [N-({[1-(4-Chloro-benzyl)-piperidin-4-ylmethyl]-carbamoyl}-methyl)-3-trifluoromethyl-benzamide] yielded an EC50 of 40 nM.
Same read-out and setting: for `O=C(CNC(=O)c1cccc(C(F)(F)F)c1)NC1CCCN(Cc2ccc(Cl)cc2)C1` (stereo not given) [N-{[1-(4-Chloro-benzyl)-piperidin-3-ylcarbamoyl]-methyl}-3-trifluoromethyl-benzamide] the value was 610 nM.
